From patent publication US8546377B2 (AbbVie Inc., priority 2009, dated 2013)

Experiments:
5HT2B receptors = target: T1, 5HT2B receptors (Homo sapiens, UniProt P41595); assay: Human 5-HT2B functional assay in CHO-K1 cells (calcium flux, FLIPR); type: cell-based; details: CHO-K1 cells over-expressing 5HT2B, calcium flux; read-out: EC50 (μM), 5-HT2B Agonist Activity
T1 construct: expressed in transfected cells; host or cells: CHO-K1 cells
Method in brief: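 Frozen CHO-K1 cells over-expressing receptor, serum-starved overnight, loaded with Ca4 dye plus 2.5 mM probenecid for 60 min at room temperature. FLIPR fluorescence (ex 480/em 530 nm, 25° C) recorded 3 min after compound addition; 6-point 1:10 series from 10 μM, 0.2% DMSO. Response normalized to serotonin, 4-parameter fit gives EC50; Emax as % of serotonin.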

h-5-HT6 receptor = target: T2, h-5-HT6 receptor (Homo sapiens, UniProt P50406); assay: Human 5-HT6 receptor radioligand binding assay ([3H]-LSD, HEK293 membranes); details: HEK293 membranes, 1 nM [3H]-lysergic acid diethylamide, 3.5 hours at room temperature; read-out: Ki (μM), 5-HT6 Agonist Site Radioligand Binding
T2 construct: expressed in transfected cells; host or cells: HEK293 cells (membrane preparation)
Protocol: (iv) Human 5-HT6 Receptor Radioligand Binding Assay
Preparation of Membranes by Ultrasonic Treatment and Differential Centrifugation
Cells from stable clonal cell lines expressing the corresponding receptor (5-HT6) were washed with PBS (without Ca^++, Mg^++) and harvested in PBS with 0.02% EDTA. The cells were collected by centrifugation at 500 g for 10 minutes at 4° C., washed with PBS and centrifuged (500 g, 10 minutes at 4° C.). The pellets were stored at −80° C. until use. For membrane preparation, the thawed cell pellet was resuspended in ice-cold sucrose buffer (0.25 M sucrose, 10 mM HEPES (pH 7.4), 1 mM phenylmethylsulfonyl fluoride (PMSF) in DMSO, 5 μg/ml Pepstatin-A, 3 mM EDTA, 0.025% Bacitracin) and homogenized with a Branson Sonifier W-250 (Settings: Timer 4; Output Control 3; Duty Cycle constant; 2 to 3 cycles). Cell disruption was checked with the aid of a microscope. Remaining unbroken cells were pelleted at 1,000 g for 10 minutes at 4° C. The sucrose buffer supernatant was then centrifuged at 60,000 g for 1 hour at 4° C. (Beckman Ultrazentrifuge XL 80). The pellet was resuspended in 30 mL of ice-cold Tris buffer (20 mM TRIS (pH 7.4), 5 μg/mL Pepstatin A, 0.1 mM PMSF, 3 mM EDTA) by pipetting through a 10 mL serological pipet and centrifuged for 1 hour at 4° C. at 60,000 g. A final resuspension was performed in a small volume of ice-cold Tris buffer (see above) by pressing through a serological pipet followed by ultrasonic treatment with a Branson Sonifier W-250 (Settings: Timer 1; Output Control 3; Duty Cycle constant; 1 cycle). Protein concentration was determined (BCA-Kit; Pierce) and aliquots stored at −80° C. or in liquid nitrogen for long-term storage.
Receptor Binding Experiments
All receptor binding experiments were carried out in the corresponding assay buffer in a total volume of 200 μL in the presence of various concentrations of test compound (10^−5 M to 10^−9 M, tenfold serial dilution, duplicate determinations). The assays were terminated by filtration on polyethylenimine (PEI 0.1% or 0.3%) presoaked Packard Unifilter Plates (GF/C or GF/B) with a Tomtec MachIII U 96 well-plate harvester. After the plates had been dried for 2 hours at 55° C. in a drying chamber scintillation cocktail (BetaPlate Scint; PerkinElmer) was added. Radioactivity was measured in a Microbeta Trilux two hours after the addition of the scintillation mixture.
5-HT6 Receptor Binding Assay
HEK293 cells stably expressing the h-5-HT6 receptor (NCBI Reference Sequence XM 001435) were cultured in RPMI1640 medium supplemented with 25 mM HEPES, 10% fetal calf serum and 1-2 mM glutamine. The membrane preparation was performed as described above. […] On the day of the assay, the membranes were thawed, diluted in assay buffer (50 mM Tris-HCl, 5 mM CaCl2, 0.1% ascorbic acid, 10 μM pargyline, pH 7.4) to a concentration of 8 μg protein/assay and homogenized by gentle vortexing. […] Non-specific binding was defined with 1 μM methiothepin. The binding reaction was carried out for 3.5 hours at room temperature. During the incubation, the plates were shaken on a plate shaker at 100 rpm and terminated by filtration on Packard Unifilter GF/C (0.1% PEI) plates, followed by 2 wash cycles with ice-cold 50 mM Tris-HCl, 5 mM CaCl2.
Data derived from liquid scintillation counting were analyzed by iterative non-linear regression analysis with the use of the Statistical Analysis System (SAS): a program similar to “LIGAND” as described by Munson and Rodbard (Anal. Biochem. 1980, 107, 220-239). Fitting was performed according to formulae described by Feldman (Anal. Biochem. 1972, 48, 317-338). IC50, nH and Ki values were expressed as geometrical mean.
The results of the receptor binding studies are expressed as receptor binding constants Ki(5-HT6) as described herein before, and given in Table 5.

T1 sequence (P41595 whole entry): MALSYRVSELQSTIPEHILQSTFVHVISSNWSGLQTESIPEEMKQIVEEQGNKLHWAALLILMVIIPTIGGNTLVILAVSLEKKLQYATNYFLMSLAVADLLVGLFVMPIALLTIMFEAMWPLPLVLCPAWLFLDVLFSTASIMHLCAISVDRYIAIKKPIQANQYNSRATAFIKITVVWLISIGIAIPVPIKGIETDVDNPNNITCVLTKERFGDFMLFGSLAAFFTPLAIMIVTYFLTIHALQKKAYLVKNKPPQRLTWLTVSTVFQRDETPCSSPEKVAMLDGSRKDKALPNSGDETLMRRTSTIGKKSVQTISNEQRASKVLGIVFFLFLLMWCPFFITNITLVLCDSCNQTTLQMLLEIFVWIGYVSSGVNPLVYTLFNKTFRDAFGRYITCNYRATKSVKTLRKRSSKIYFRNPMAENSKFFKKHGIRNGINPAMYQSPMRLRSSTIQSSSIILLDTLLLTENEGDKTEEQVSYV
T2 sequence (P50406 whole entry): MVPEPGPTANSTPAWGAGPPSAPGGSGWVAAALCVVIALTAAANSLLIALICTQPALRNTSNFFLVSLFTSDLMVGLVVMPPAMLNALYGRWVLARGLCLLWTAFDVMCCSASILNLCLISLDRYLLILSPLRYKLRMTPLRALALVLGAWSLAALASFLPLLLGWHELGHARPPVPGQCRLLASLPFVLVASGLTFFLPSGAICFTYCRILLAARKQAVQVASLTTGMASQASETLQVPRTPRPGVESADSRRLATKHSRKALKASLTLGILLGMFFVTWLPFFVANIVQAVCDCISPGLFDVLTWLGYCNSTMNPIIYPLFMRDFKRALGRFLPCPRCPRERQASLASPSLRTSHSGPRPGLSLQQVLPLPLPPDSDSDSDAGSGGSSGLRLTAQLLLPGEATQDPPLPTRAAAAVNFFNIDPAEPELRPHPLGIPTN

For `O=C1NCC2CNCCN2c2ccc(NS(=O)(=O)c3ccccc3)cc21` (centres unmarked) [Example 48, N-(7-oxo-1,2,3,4,4a,5,6,7-octahydropyrazino[1,2-a][1,4]benzodiazepin-9-yl)benzenesulfonamide], the EC50 (5HT2B receptors) was greater than 10 µM and the Ki (h-5-HT6 receptor) was 0.045 µM.
